Laboratory results taken from patent US20140080847A1, “Compositions and Methods for Affecting Energy Balance, Body Composition, Fitness, and Well-Being” (OEJM Products Holdings, LLC, priority 2012, published 2014).

Experiments:
[1] = tested on: Wistar rats; experiment: Acute toxicity and tolerance (MTD) of a single oral dose in Wistar rats; format: in vivo, rat
Description: (§1) The maximum tolerated dose (MTD) of orally administered 1,3-DMPA and 1,4-DMPA was determined in New Zealand white rabbits and Wistar rats.
(§2) Determination of MTD of orally-administered 1,3-DMPA in Wistar rats: The same general methods and procedures were followed as described above. This study involved forty animals randomly divided into four groups of ten animals (five male, five female) in each group. […] The MTD of a single oral dose of 1,3-DMPA was determined to be between 125 mg/kg and 250 mg/kg.
as §2, with “1,4-DMPA” for “1,3-DMPA”, “group. The groups were treated as follows: Group I (vehicle control—water), Group II (75 mg/kg), Group III (150 mg/kg), and Group IV (300 mg/kg). […] Gross pathological changes were not observed in the treated groups during necropsy.” for “group.”, “150” for “125”, “300 mg/kg in Wistar rats.” for “250 mg/kg.”

[2] = as above; format: in vivo, rat; settings: both sexes, Wistar, in vivo; rat, single oral dose
Description: as §1, §2
as §2, with “1,4-DMPA” for “1,3-DMPA”, “group. The groups were treated as follows: Group I (vehicle control—water), Group II (75 mg/kg), Group III (150 mg/kg), and Group IV (300 mg/kg). […] Gross pathological changes were not observed in the treated groups during necropsy.” for “group.”, “150” for “125”, “300 mg/kg in Wistar rats.” for “250 mg/kg.”

[3] = tested on: cats and dogs; settings: early animal studies; cited from earlier work
[4] = tested on: human(s); experiment: Comparative effects of 1,3-DMPA and 1,4-DMPA compounds in humans (self-administration); format: in vivo
Description: The compounds 1,3-DMPA, racemic 1,4-DMPA, (R)-1,4-DMPA, and (S)-1,4-DMPA were administered to human(s). A non-smoking person of normal weight ingested 40 mg 1,3-DMPA as part of a dietary supplement (dietary ingredients: arginine α-ketoglutarate, creatine monohydrate, β-alanine, caffeine, 1,3-dimethylpentylamine HCL, schisandra cinensis (berry) extract (standardized for schizandrol A)); powder form), self-administered daily for at least seven days. […] To compare the effects of 1,3-DMPA to the effects of 1,4-DMPA, this individual later ingested 1,4-DMPA (racemic) for at least seven days at a dose of 60 mg per day, combined with 250 mg caffeine.
To compare the effects of (R)-1,4-DMPA, and (S)-1,4-DMPA, the individual described above ingested each enantiomer separately. Starting dose was ˜20 mg per day, which was increased to 30 mg per day if treatment was continued. Doses were combined with 250 mg caffeine as described above. […] The dose was increased to 30 mg per day; the total duration of treatment was at least three weeks. […] Ingestion of (S)-1,4-DMPA (25-30 mg per day) with caffeine produced different effects. […] The individual ceased self-administering (S)-1,4-DMPA after several days of experiencing the latter effects.

[5] = tested on: New Zealand white rabbits; experiment: Acute toxicity and tolerance (MTD) of a single oral dose in New Zealand white rabbits; format: in vivo, rabbit
Description: as §1
(§3) Determination of MTD of orally-administered 1,3-DMPA in New Zealand white rabbits: Twenty-four rabbits (twelve male, twelve female) were quarantined for at least seven days and then were randomly divided into four groups with six animals (3 male and 3 female) in each group. […] Animals were observed daily for fourteen days following administration. Each animal's body weight, food intake, mortality, and natural orifices were monitored. Clinical observations included skin condition, gait, movement, neurological disorders, eye condition, feces, convulsions, tremors, activity rate, restlessness, grooming, sleep, aggressiveness, salivation, diarrhea, respiration, appetite, thirst and urine conditions. Other observations included fur condition, mucous membranes, presence or absence of secretions and excretions and autonomic activity, lacrimation, piloerection, pupil size, posture, arched back, distended abdomen, fur, mucous membrane, presence or absence of secretions, tail elevation, motor activity, urination and defecation, and response to handling as well as the presence of clonic or tonic movements, repetitive circling, bizarre behavior, self-mutilation and walking backwards. At the conclusion of the fourteen day monitoring period, gross pathological examination was carried out on all animals. Heart, lung, liver, kidneys, spleen, stomach, large intestine, small intestine, brain and skin were examined for any macroscopic lesions.
(§4) Determination of MTD of orally-administered 1,4-DMPA in New Zealand white rabbits: Thirty rabbits (fifteen male, fifteen female) were quarantined for at least seven days and then were randomly divided into five groups with six animals (3 male and 3 female) in each group. […] Animals were observed daily for fourteen days following administration. Each animal's body weight, food intake, mortality, and natural orifices were monitored. As above, clinical observations included observation of natural orifices for any abnormal secretions and monitoring for the presence or absence of secretions and excretions, monitoring of mucous membranes, fur and skin condition, mortality, gait, posture, arched back, distended abdomen, movement and motor activity, neurological disorders, eye condition and pupil size, feces, convulsions, tremors, tail elevation, activity rate, restlessness, grooming, sleep, aggressiveness, salivation, diarrhea, respiration, appetite, thirst and urine conditions, autonomic activity, lacrimation, piloerection, response to handling, as well as the presence of clonic or tonic movements, repetitive circling, bizarre behavior, self-mutilation and walking backwards. At the conclusion of the fourteen day monitoring period, gross pathological examination was carried out on all animals. Heart, lung, liver, kidneys, spleen, stomach, large intestine, small intestine, brain and skin were examined for any macroscopic lesions.

[6] = as above; format: in vivo, rabbit; settings: both sexes, New Zealand white, in vivo; rabbit, single oral dose
Description: as §1, §3, §4

[7] = tested on: humans; settings: cited from earlier work
[8] = male, 60 mg per day with 250 mg caffeine, at least seven days
[9] = male, 40 mg daily in a dietary supplement containing caffeine, at least seven days
[10] = male, 20 then 30 mg per day with 250 mg caffeine, at least three weeks
[11] = male, starting dose 20 mg per day with 250 mg caffeine
[12] = male, 25-30 mg per day with caffeine, several days

In the case of `CC(C)CCC(C)N` (racemic) [1,4-DMPA, 1,4-dimethylpentylamine], the additional clinical signs ([1]; rat, 150 mg/kg and 300 mg/kg oral) was “Tremors and convulsions”, the “examination of the animals that died” value ([1]; rat, 300 mg/kg oral, died 4.5 hours post dosing) was “right median lobe consolidation and red foci on lungs, mild reddish discoloration of adrenals and spleen, mild enlargement of the spleen and glandular mucosa of the stomach showing hyperemia” and the mortality ([1]; rat, 300 mg/kg oral, ten animals per group, within 4.5 hours) was “Four mortalities”. The mean body weight ([1]; rat, 75, 150, 300 mg/kg oral, study period, vs control) was “consistently increased”, the mortality ([1]; rat, 75 and 150 mg/kg oral) was “No mortalities” and the clinical signs ([1]; rat, all treated animals 75, 150, 300 mg/kg oral) was “piloerection, tail elevation, nasal discharge, tachycardia and hyperactivity”. For the same compound, the “gross pathological changes at necropsy” value ([1]; rat, treated groups 75-300 mg/kg oral) was “not observed”, the feed consumption ([1]; rat, treatment groups 75, 150, 300 mg/kg oral, first 48 hours post administration) was “consume less feed” and the LD50 at 14 days [2] was 465 mg/kg. The MTD at 14 days [2] was 150 to 300 mg/kg, the vasopressor activity [3] was “possesses vasopressor activity” and the appetite [4, 8] was “decreased appetite”. For the same compound, the “effect on heart rate compared with prior 1,3-DMPA” value [4, 8] was “reduced effect on heart rate”, the “jitteriness or anxiousness compared with prior 1,3-DMPA” value [4, 8] was “noticeably reduced feelings of jitteriness or anxiousness” and the “level of CNS stimulation compared with 1,3-DMPA” value [4, 8] was “about the same level of CNS stimulation”. The mood and vigor [4, 8] was “improved mood and vigor”, the “nature of the stimulatory effect” value [4, 8] was “increased focus and alertness and reduced fatigue” and the physical performance [4, 8] was “improved physical performance”. For the same compound, the fat mass ([4]; reports of individuals ingesting the compound) was “reduction in fat mass”, the clinical signs ([5]; rabbit, 250 mg/kg and 350 mg/kg oral, all animals) was “tremors and tachycardia” and the body weight ([5]; rabbit, 350 mg/kg oral (Group V), study period) was “variation in body weight”. For the same compound, the “gross pathology of the animal that died” value ([5]; rabbit, 350 mg/kg oral, died after 36 hours) was “dark reddish discoloration of the lung suggesting congestion, slight reddish discoloration of the trachea, and mild petechial hemorrhages in the liver”, the mortality ([5]; rabbit, 350 mg/kg oral, six animals per group, within 36 hours) was “one mortality” and the mortality ([5]; rabbit, 50, 125, 250 mg/kg oral) was “No mortalities”. For the same compound, the mean body weight ([5]; rabbit, 50, 125, 250 mg/kg oral (all groups except Group V), 14 days, vs vehicle control) was “consistent increase”, the mean food intake ([5]; rabbit, all treatment groups 50-350 mg/kg, first 48 hours post treatment, vs control) was “reduced” and the gross pathological changes ([5]; rabbit, treated groups 50-350 mg/kg, except the animal that died) was “No gross pathological changes were observed”. For the same compound, the “toxicity and tolerance compared with 1,3-DMPA” value ([5]; single-dose rat and rabbit studies) was “less toxic and better tolerated than 1,3-DMPA” and the MTD at 14 days [6] was 250 to 350 mg/kg.
With `CCC(C)CC(C)N` (stereo not shown) [1,3-DMPA, 1,3-dimethylpentylamine, reference compound] the additional clinical signs ([1]; rat, 250 mg/kg oral) was “tremors”, the food intake ([1]; rat, 250 mg/kg oral) was “decreased food intake on Day 3” and the necropsy analysis ([1]; rat, 250 mg/kg oral, preterminal mortality) was “hyperemia in the stomach glandular mucosa; congestion of lungs, liver and adrenals; the presence of blood clots in the cranial cavity; and ballooning of the small intestine with reddish yellow fluid”. The mortality ([1]; rat, 250 mg/kg oral, ten animals per group, within 26 hours of dosing) was “One preterminal mortality”, the mean body weight ([1]; rat, 50, 125, 250 mg/kg oral, all treatment groups) was “consistent increase” and the mean food intake ([1]; rat, 50 and 125 mg/kg oral) was “normal”. For the same compound, the mortality ([1]; rat, 50 and 125 mg/kg oral (lower dose groups)) was “no mortalities”, the clinical signs ([1]; rat, all treatment groups 50, 125, 250 mg/kg oral) was “piloerection, tail elevation, nasal discharge and hyperactivity” and the LD50 at 14 days [2] was 482 mg/kg. The MTD at 14 days [2] was 125 to 250 mg/kg, the vasopressor activity [3] was “exhibit vasopressor or vasoconstriction activity” and the CNS stimulation [4, 9] was “CNS stimulation, including feelings of restlessness and jitteriness”. The appetite [4, 9] was “decreased appetite”, the heart rate [4, 9] was “increased heart rate” and the mood [4, 9] was “improved mood”. The “physical performance during exercise and strength training” value [4, 9] was “improved physical performance”, the vasopressor effects ([7]; acute oral administration in humans) was “vasopressor effects similar to the effects of caffeine” and the “glycerol and free fatty acid concentration (markers of lipolysis)” value ([7]; humans, following exercise) was “increased levels of these markers of lipolysis”. For the same compound, the blood pressure ([7]; humans) was “increase blood pressure to a modest degree”, the “heart rate and circulating catecholamines (norepinephrine and epinephrine)” value ([7]; humans) was “no effect on heart rate or on circulating catecholamines” and the norepinephrine levels ([7]; humans) was “no effect on norepinephrine levels”. For the same compound, the gross pathological observations ([5]; rabbit, 50 mg/kg or 150 mg/kg oral) was “no changes”, the behavioral observations ([5]; rabbit, 50 mg/kg oral) was “did not exhibit any behavioral aberrations” and the clinical signs ([5]; rabbit, 150 mg/kg oral, a few animals, hours 1-6 after administration) was “tremors”. The clinical signs ([5]; rabbit, 300 mg/kg oral) was “nasal discharge, salivation, tremors, convulsions and tachycardia”, the “gross necropsy of animals that died” value ([5]; rabbit, 300 mg/kg oral) was “reddish discoloration in the lungs, multiple watery cyst on the right median lobe of the liver and focal white patches” and the mortality ([5]; rabbit, 300 mg/kg oral, six animals per group, within four hours after dosing) was “four animals in this group died”. The mean body weight ([5]; rabbit, 50, 150, 300 mg/kg oral, 14-day study period) was “consistent increase”, the mean food intake ([5]; rabbit, 50, 150, 300 mg/kg oral, study period) was “normal” and the food intake ([5]; rabbit, treatment groups 50-300 mg/kg, first observations following treatment) was “initial decrease in food intake”. For the same compound, the LD50 at 14 days [6] was 324 mg/kg and the MTD at 14 days [6] was 150 to 300 mg/kg.
With `CC(C)CC[C@@H](C)N` [(R)-1,4-DMPA, (R)-1,4-dimethylpentylamine] the CNS stimulation [4, 10] was “CNS stimulation, including feelings of alertness, focus, and reduced fatigue”, the appetite [4, 10] was “decreased appetite” and the “heart rate, jitteriness, nervousness, anxiety” value [4, 10] was “not associated with a noticeable increase in heart rate, jitteriness, nervousness, or anxiety”. For the same compound, the mood [4, 10] was “improved mood”, the physical performance [4, 10] was “improved physical performance” and the CNS stimulant effect [4, 11] was “produced CNS stimulant effect”. The “jitteriness or pressor effect” value [4, 11] was “little or no jitteriness or pressor effect”.
In the case of `CC(C)CC[C@H](C)N` [(S)-1,4-DMPA, (S)-1,4-dimethylpentylamine], the “alertness and focus in comparison to (R)-1,4-DMPA” value [4, 12] was “lessened alertness and focus” and the “heart rate and restlessness in comparison to (R)-1,4-DMPA” value [4, 12] was “increased heart rate and restlessness”.
